Assay results as given in US4945090A, “Phenoxy-substituted beta-carboline derivatives, their production and their use as drugs” (Schering Aktiengesellschaft, priority 1985, dated 1990).
Values after ≈ are worked out from the molar mass of the structure shown.

How the values were obtained:
benzodiazepine receptors [1] = assay: displacement of 3H-flunitrazepam from benzodiazepine receptors in live brain, in vivo; conditions: reduction of specific flunitrazepam binding in live brain to 50% of control; normally intraperitoneal; 3H-flunitrazepam i.v. after 15 minutes, forebrain removed after another 20 minutes
[2] = tested on: spasms induced by pentylenetrazole (pentazol); assay: PTZ spasms antagonism (protection from pentylenetrazole-induced spasms and death); set-up: species or system mice; conditions: Mus musculus, ip, 0.5 h; protects 50% of animals from spasms and death; test substance i.p. 15-30 minutes before pentazol 150 mg/kg s.c.; Litchfield and Wilcoxon; read-out: PTZ (ED50) mg/kg in vivo
Protocol: The compounds according to the invention especially show anxiolytic and anticonvulsive effectiveness. […] Pentazol is administered subcutaneously in an amount of 150 mg/kg as hydrochloric acid solution (pH 2-3) 15-30 minutes after the intraperitoneal application of the test substance. This amount induces clonic and tonic spasms, which lead to death in untreated animals. The number of mice which show spasms and the number of them that died 30 minutes after pentazol are recorded (PTZ spasms antagonism).
The ED50 values indicated in the table were determined according to the method of Litchfield and Wilcoxon (J. Pharmacol. exp. Ther. 96 (1949) […]) as the amount of antagonistically acting substance which protects 50% of the animals from spasms and death.

benzodiazepine receptors [3] = assay: displacement of 3H-flunitrazepam from benzodiazepine receptors in vitro (rat forebrain membranes); conditions: 50% displacement of specific 3H-flunitrazepam binding (1.0 nM, 0° C.), brain membranes of rats, pH 7.1

SMILES | ED50 (mg/kg) in vivo (benzodiazepine receptors [1]) | ED50 [2] | IC50 (ng/ml) in vitro (benzodiazepine receptors [3])
CCc1noc(-c2ncc3[nH]c4ccc(Oc5ccccc5)cc4c3c2C)n1 [6-Phenoxy, CH3, drawing 14, 6-phenoxy-4-methyl-3-(3-ethyl-1,2,4-oxadiazol-5-yl)-beta carboline] | 2.6 mg/kg | 2.4 mg/kg | 3.2 ng/mL (≈ 8.64 nM)
CCOC(=O)c1ncc2[nH]c3cccc(Oc4ccc(Cl)cc4Cl)c3c2c1COC [5-(2,4-dichlorophenoxy)-4-methoxymethyl-beta-carboline-3-carboxylic acid ethyl ester] | 3.2 mg/kg | 4 mg/kg | 2.9 ng/mL (≈ 6.51 nM)
CCc1noc(-c2ncc3[nH]c4ccc(Oc5ccc(C(C)=O)cc5)cc4c3c2COC)n1 [6-(4-acetylphenoxy), CH2 OCH3, drawing 11, 6(4-acetylphenoxy)-4-methoxymethyl-3-(3-ethyl-1,2,4-oxadizaol-5-yl)-beta-carboline] | 7.7 mg/kg | 0.3 mg/kg | 0.45 ng/mL (≈ 1.02 nM)
CCc1noc(-c2ncc3[nH]c4cccc(Oc5ccccc5)c4c3c2COC)n1 [5-Phenoxy, CH2 OCH3, drawing 12, 5-phenoxy-4-methoxymethyl-3-(3-ethyl-1,2,4-oxadiazol-5-yl)-beta carboline] | 0.3 mg/kg | 0.1 mg/kg | 0.6 ng/mL (≈ 1.5 nM)
COCc1c(C(=O)OC(C)C)ncc2[nH]c3ccc(Oc4cccc(Cl)c4C#N)cc3c12 [6-(2-cyano-3-chlorophenoxy)-4-methoxymethyl-beta-carboline-3-carboxylic acid isopropyl ester] | 3.0 mg/kg | 1 mg/kg | 0.67 ng/mL (≈ 1.49 nM)
COCc1c(C(=O)OC(C)C)ncc2[nH]c3ccc(Oc4ccccc4[N+](=O)[O-])cc3c12 [6-(2-nitrophenoxy)-4-methoxymethyl-beta-carboline-3-carboxylic acid isopropyl ester] | 1.8 mg/kg | 13 mg/kg | 0.33 ng/mL (≈ 0.758 nM)
CCOC(=O)c1ncc2[nH]c3cccc(Oc4ccccc4)c3c2c1C [5-Phenoxy, CH3, COOC2 H5, 5-phenoxy-4-methyl-beta-carboline-3-carboxylic acid ethyl ester, reference compound] | 2.8 mg/kg | > 30 mg/kg | 2.0 ng/mL (≈ 5.77 nM)
COCc1c(C(=O)OC(C)C)ncc2[nH]c3ccc(Oc4ccccc4C#N)cc3c12 [6-(2-cyanophenoxy)-4-methoxymethyl-beta-carboline-3-carboxylic acid isopropyl ester] | 3.8 mg/kg | 4 mg/kg | 0.29 ng/mL (≈ 0.698 nM)
CCc1noc(-c2ncc3[nH]c4cccc(Oc5ccccc5Cl)c4c3c2COC)n1 [5-(2-Cl-Phenoxy), CH2 OCH3, drawing 10] | 11 mg/kg | 0.8 mg/kg | 3.1 ng/mL (≈ 7.13 nM)
COCc1c(C(=O)OC(C)C)ncc2[nH]c3cccc(Oc4ccccc4Cl)c3c12 [5-(2-Cl-Phenoxy), CH2 OCH3, COOCH(CH3)2] | 19 mg/kg | 4 mg/kg | 2.6 ng/mL (≈ 6.12 nM)
CCOC(=O)c1ncc2[nH]c3cccc(Oc4ccccc4)c3c2c1COC [5-Phenoxy, CH2 OCH3, COOEt, 5-Phenoxy-4-methoxymethyl-beta-carboline-3-carboxylic acid ethyl ester] | 0.4 mg/kg | 18 mg/kg | 0.3 ng/mL (≈ 0.797 nM)
CCc1noc(-c2ncc3[nH]c4cccc(Oc5ccccc5)c4c3c2C)n1 [5-Phenoxy, CH3, drawing 13, 5-phenoxy-4-methyl-3-(3-ethyl-1,2,4-oxadizaol-5-yl)-beta-carboline] | 3.9 mg/kg | 2 mg/kg | 4.3 ng/mL (≈ 11.6 nM)
